Results: the NIST ThermoML archive (doi:10.1016/j.jct.2017.08.004)
± gives the expanded uncertainty stated by the source.

Conditions: 130 K; 101.33 kPa; Crystal; relaxation calorimetry

molar entropy [J/K/mol] | SMILES
81.48 ± 7.5 | OC[C@@H](O)C(O)[C@H](O)CO [D-arabitol]
92.42 ± 8.5 | OC[C@@H](O)[C@@H](O)[C@H](O)[C@H](O)CO [D-mannitol]
82.11 ± 7.5 | OC[C@H](O)C(O)[C@@H](O)CO [L-(-)-arabitol]
75.5 ± 6.9 | O[C@H]1[C@H](O)[C@@H](O)[C@H](O)[C@@H](O)[C@H]1O [cis-1,2,3,5-trans-4,6-cyclohexanehexol]
68.62 ± 6.3 | OC[C@@H](O)[C@@H](O)CO [meso-1,2,3,4-butanetetrol]

Same assay, conditions: 140 K; 101.33 kPa; Crystal; relaxation calorimetry

molar entropy [J/K/mol] | SMILES
89.01 ± 8.2 | OC[C@@H](O)C(O)[C@H](O)CO [D-arabitol]
100.91 ± 9.3 | OC[C@@H](O)[C@@H](O)[C@H](O)[C@H](O)CO [D-mannitol]
89.7 ± 8.2 | OC[C@H](O)C(O)[C@@H](O)CO [L-(-)-arabitol]
82.8 ± 7.6 | O[C@H]1[C@H](O)[C@@H](O)[C@H](O)[C@@H](O)[C@H]1O [cis-1,2,3,5-trans-4,6-cyclohexanehexol]
74.74 ± 6.9 | OC[C@@H](O)[C@@H](O)CO [meso-1,2,3,4-butanetetrol]

Same assay, conditions: 150 K; 101.33 kPa; Crystal; relaxation calorimetry

molar entropy [J/K/mol] | SMILES
96.45 ± 8.9 | OC[C@@H](O)C(O)[C@H](O)CO [D-arabitol]
109.31 ± 10 | OC[C@@H](O)[C@@H](O)[C@H](O)[C@H](O)CO [D-mannitol]
97.21 ± 8.9 | OC[C@H](O)C(O)[C@@H](O)CO [L-(-)-arabitol]
90.1 ± 8.3 | O[C@H]1[C@H](O)[C@@H](O)[C@H](O)[C@@H](O)[C@H]1O [cis-1,2,3,5-trans-4,6-cyclohexanehexol]
80.8 ± 7.4 | OC[C@@H](O)[C@@H](O)CO [meso-1,2,3,4-butanetetrol]

Same assay, conditions: 160 K; 101.33 kPa; Crystal; relaxation calorimetry

molar entropy [J/K/mol] | SMILES
103.81 ± 9.5 | OC[C@@H](O)C(O)[C@H](O)CO [D-arabitol]
117.62 ± 11 | OC[C@@H](O)[C@@H](O)[C@H](O)[C@H](O)CO [D-mannitol]
104.63 ± 9.6 | OC[C@H](O)C(O)[C@@H](O)CO [L-(-)-arabitol]
97.42 ± 8.9 | O[C@H]1[C@H](O)[C@@H](O)[C@H](O)[C@@H](O)[C@H]1O [cis-1,2,3,5-trans-4,6-cyclohexanehexol]
86.79 ± 8 | OC[C@@H](O)[C@@H](O)CO [meso-1,2,3,4-butanetetrol]

Same assay, conditions: 170 K; 101.33 kPa; Crystal; relaxation calorimetry

molar entropy [J/K/mol] | SMILES
111.08 ± 10 | OC[C@@H](O)C(O)[C@H](O)CO [D-arabitol]
125.86 ± 12 | OC[C@@H](O)[C@@H](O)[C@H](O)[C@H](O)CO [D-mannitol]
111.97 ± 10 | OC[C@H](O)C(O)[C@@H](O)CO [L-(-)-arabitol]
104.72 ± 9.6 | O[C@H]1[C@H](O)[C@@H](O)[C@H](O)[C@@H](O)[C@H]1O [cis-1,2,3,5-trans-4,6-cyclohexanehexol]
92.72 ± 8.5 | OC[C@@H](O)[C@@H](O)CO [meso-1,2,3,4-butanetetrol]

Same assay, conditions: 180 K; 101.33 kPa; Crystal; relaxation calorimetry

molar entropy [J/K/mol] | SMILES
118.28 ± 11 | OC[C@@H](O)C(O)[C@H](O)CO [D-arabitol]
134.02 ± 12 | OC[C@@H](O)[C@@H](O)[C@H](O)[C@H](O)CO [D-mannitol]
119.24 ± 11 | OC[C@H](O)C(O)[C@@H](O)CO [L-(-)-arabitol]
112.03 ± 10 | O[C@H]1[C@H](O)[C@@H](O)[C@H](O)[C@@H](O)[C@H]1O [cis-1,2,3,5-trans-4,6-cyclohexanehexol]
98.61 ± 9.1 | OC[C@@H](O)[C@@H](O)CO [meso-1,2,3,4-butanetetrol]

Same assay, conditions: 190 K; 101.33 kPa; Crystal; relaxation calorimetry

molar entropy [J/K/mol] | SMILES
125.41 ± 12 | OC[C@@H](O)C(O)[C@H](O)CO [D-arabitol]
142.11 ± 13 | OC[C@@H](O)[C@@H](O)[C@H](O)[C@H](O)CO [D-mannitol]
126.44 ± 12 | OC[C@H](O)C(O)[C@@H](O)CO [L-(-)-arabitol]
119.33 ± 11 | O[C@H]1[C@H](O)[C@@H](O)[C@H](O)[C@@H](O)[C@H]1O [cis-1,2,3,5-trans-4,6-cyclohexanehexol]
104.44 ± 9.6 | OC[C@@H](O)[C@@H](O)CO [meso-1,2,3,4-butanetetrol]

Same assay, conditions: 200 K; 101.33 kPa; Crystal; relaxation calorimetry

molar entropy [J/K/mol] | SMILES
132.48 ± 12 | OC[C@@H](O)C(O)[C@H](O)CO [D-arabitol]
150.14 ± 14 | OC[C@@H](O)[C@@H](O)[C@H](O)[C@H](O)CO [D-mannitol]
133.58 ± 12 | OC[C@H](O)C(O)[C@@H](O)CO [L-(-)-arabitol]
126.62 ± 12 | O[C@H]1[C@H](O)[C@@H](O)[C@H](O)[C@@H](O)[C@H]1O [cis-1,2,3,5-trans-4,6-cyclohexanehexol]
110.22 ± 10 | OC[C@@H](O)[C@@H](O)CO [meso-1,2,3,4-butanetetrol]

Same assay, conditions: 210 K; 101.33 kPa; Crystal; relaxation calorimetry

molar entropy [J/K/mol] | SMILES
139.49 ± 13 | OC[C@@H](O)C(O)[C@H](O)CO [D-arabitol]
158.13 ± 15 | OC[C@@H](O)[C@@H](O)[C@H](O)[C@H](O)CO [D-mannitol]
140.66 ± 13 | OC[C@H](O)C(O)[C@@H](O)CO [L-(-)-arabitol]
133.91 ± 12 | O[C@H]1[C@H](O)[C@@H](O)[C@H](O)[C@@H](O)[C@H]1O [cis-1,2,3,5-trans-4,6-cyclohexanehexol]
115.97 ± 11 | OC[C@@H](O)[C@@H](O)CO [meso-1,2,3,4-butanetetrol]

Same assay, conditions: 220 K; 101.33 kPa; Crystal; relaxation calorimetry

molar entropy [J/K/mol] | SMILES
146.44 ± 13 | OC[C@@H](O)C(O)[C@H](O)CO [D-arabitol]
166.06 ± 15 | OC[C@@H](O)[C@@H](O)[C@H](O)[C@H](O)CO [D-mannitol]
147.69 ± 14 | OC[C@H](O)C(O)[C@@H](O)CO [L-(-)-arabitol]
141.19 ± 13 | O[C@H]1[C@H](O)[C@@H](O)[C@H](O)[C@@H](O)[C@H]1O [cis-1,2,3,5-trans-4,6-cyclohexanehexol]
121.68 ± 11 | OC[C@@H](O)[C@@H](O)CO [meso-1,2,3,4-butanetetrol]

Same assay, conditions: 230 K; 101.33 kPa; Crystal; relaxation calorimetry

molar entropy [J/K/mol] | SMILES
153.36 ± 14 | OC[C@@H](O)C(O)[C@H](O)CO [D-arabitol]
